Source: US6071899A, “Azetidinone derivatives for the treatment of atherosclerosis” (SmithKline Beecham p.l.c., priority 1994, dated 2000)

Columns and labels:
Lp-PLA2 = biological target: T1, Lp-PLA2 (Homo sapiens, UniProt Q13093); assay: Screen for Lp-PLA2 inhibition; format: biochemical; details: artificial substrate (A) 20 μM, 37° C., pH 7.4, 10 min pre-incubation, 405 nm; enzyme partially purified from human plasma
T1 construct: Lp-PLA2 was partially purified by density gradient centrifugation of human plasma; from tissue; host or cells: human plasma (pooled active fractions, partially purified)
T1 sequence (Q13093 22-441): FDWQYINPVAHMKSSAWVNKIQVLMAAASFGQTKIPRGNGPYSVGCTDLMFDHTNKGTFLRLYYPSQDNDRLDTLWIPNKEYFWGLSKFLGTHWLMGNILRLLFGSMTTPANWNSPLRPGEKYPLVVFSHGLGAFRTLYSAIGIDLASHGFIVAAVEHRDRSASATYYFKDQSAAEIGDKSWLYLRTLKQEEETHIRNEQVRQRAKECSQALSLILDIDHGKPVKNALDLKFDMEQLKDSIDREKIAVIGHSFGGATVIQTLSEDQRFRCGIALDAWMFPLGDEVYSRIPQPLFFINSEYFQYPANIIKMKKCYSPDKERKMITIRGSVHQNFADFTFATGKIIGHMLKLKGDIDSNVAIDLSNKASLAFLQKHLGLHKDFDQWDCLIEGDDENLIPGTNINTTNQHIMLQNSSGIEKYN
Experimental: 1. Screen for Lp-PLA2 inhibition.
Enzyme activity was determined by measuring the rate of turnover of the artificial substrate (A) at 37° C. in 50 mM HEPES (N-2-hydroxyethylpiperazine-N'-2-ethanesulphonic acid) buffer containing 150 mM NaCl, pH 7.4. [drawing 7] Assays were performed in 96 well titre plates.
Lp-PLA2 was partially purified by density gradient centrifugation of human plasma. Active fractions were pooled and used as the source of Lp-PLA2. The enzyme was pre-incubated at 37° C. with vehicle or test compound for 10 min in a total volume of 180 μl. The reaction was then initiated by the addition of 20 μl 10× substrate (A) to give a final substrate concentration of 20 μM. The reaction was followed at 405 nm for 20 minutes using a plate reader with automatic mixing. The rate of reaction was measured as the rate of change of absorbance.

[1] = tested on: lyso-PtdCho formation in human LDL; assay: Inhibition of Cu2+ stimulated lyso-phosphatidylcholine (lyso-PtdCho) formation; format: biochemical; details: 5 μM Cu2+
Experimental: 2. Inhibition of Cu 2+stimulated lyso-phosphatidylcholine (lyso-PtdCho) formation.
A 1 ml aliquot of human LDL (0.25 mg protein/ml) was incubated for 15 min at 37° C. with compound or vehicle. 5 μM Cu^2+ was then added to allow oxidation/lyso-PtdCho formation to occur. The incubation was terminated by the addition of 3.75 ml chloroform/methanol/c HCl (200:400:5,v/v/v). Following the addition of 1.25 ml chloroform and 1.25 ml 0.1M HCl, the mixture was vortexed and centrifuged. The lower phase was carefully removed and the upper phase re-extracted with an equal volume of synthetic lower phase. The extracts were pooled and dried under nitrogen.
Phospholipids were reconstituted into 50 μl chloroform/methanol (2:1 v/v). 10 μl aliquots were spotted on to pre-run silica gel HPTLC plates and then developed in chloroform/methanol 25-30% methylamine (60:20:5 v/v/v). Plates were subsequently sprayed with the flourescent indicator, 2-p-toluidinylnaphthalene-6-sulphonic acid (1 mM in 50 mM Tris/HCl, pH 7.4) to identify phospholipid components. Fluorescence was measured at 222 nm using a CAMAG TLC scanner. Lipoprotein lyso-PtdCho content was quantified using a standard curve (0.05-0.5 μg) prepared in parallel.

Structure (SMILES)	IC50 (Lp-PLA2) [µM]	IC50 ([1]; human LDL 0.25 mg protein/ml, 15 min pre-incubation at 37° C., read-out: IC50 (inhibition of LDL lyso-PtdCho accumulation stimulated by copper ions)) [µM]	inhibition of LDL lyso-PtdCho accumulation stimulated by copper ions (in words) ([1]; human LDL)
CCCCCC[S+]([O-])C1CC(=O)N1CC(=O)CCc1ccccc1 (single isomer, unassigned) [Example 24, 4-Hexylsulfinyl-1-(4-phenyl-2-oxobutyl)azetidin-2-one]	0.03 to 0.4		
CCCCCC[S+]([O-])C1CC(=O)N1CC(=O)NCCCCCCc1ccccc1 (single isomer, unassigned) [Example 79, N-(6-Phenylhexyl)-(4-n-hexylsulfinyl-2-oxoazetidin-1-yl)acetamide]	0.03 to 0.4		
C[S+]([O-])C1CC(=O)N1CC(=O)NCCCCCCc1ccccc1 (centres unmarked) [Example 63, N-6-Phenylbexyl-(4-methylsulphinyl-2-oxoazetidin-1-yl)acetamide]	0.03 to 0.4		
CCCC[S+]([O-])C1CC(=O)N1CC(=O)CCc1ccccc1 (centres unmarked) [Example 18, 4-Butylsulfinyl-1-(4-phenyl-2-oxobutyl)azetidin-2-one]	0.03 to 0.4		
C[S+]([O-])C1CC(=O)N1CCCCc1ccccc1 (centres unmarked) [Example 84, 4-Methylsulfinyl-1-(4-phenylbutyl)-azetidin-2-one]	0.03 to 0.4		
C[C@@H]1C(=O)N(CC(=O)NCCCCCCc2ccccc2)[C@H]1[S+](C)[O-] (relative stereo) [Example 71, trans-N-(6-phenylhexyl)-(3-methyl-4-methylsulphinyl-2-oxoazetidin-1-yl)acetamide]	0.03 to 0.4	~0.06	dose dependently inhibits
